Structures are written as SMILES.

Results on 1 compound are retold here after paper PMC10821196, “Analysis of Marrubiin in Marrubium alysson L. Extract Using Advanced HPTLC: Chemical Profiling, Acetylcholinesterase Inhibitory Activity, and Molecular Docking” (Metabolites, 2023).

This experiment concerns the target T1, acetylcholinesterase (AChE) (Electrophorus electricus, UniProt O42275).
T1 construct: commercial native enzyme from electric eel (Sigma-Aldrich)
The experiment in a line: Ellman assay, […] nm. The class given is biochemical. In general terms: DTNB colorimetry detects thiols as they appear.

T1 sequence (O42275 24-633): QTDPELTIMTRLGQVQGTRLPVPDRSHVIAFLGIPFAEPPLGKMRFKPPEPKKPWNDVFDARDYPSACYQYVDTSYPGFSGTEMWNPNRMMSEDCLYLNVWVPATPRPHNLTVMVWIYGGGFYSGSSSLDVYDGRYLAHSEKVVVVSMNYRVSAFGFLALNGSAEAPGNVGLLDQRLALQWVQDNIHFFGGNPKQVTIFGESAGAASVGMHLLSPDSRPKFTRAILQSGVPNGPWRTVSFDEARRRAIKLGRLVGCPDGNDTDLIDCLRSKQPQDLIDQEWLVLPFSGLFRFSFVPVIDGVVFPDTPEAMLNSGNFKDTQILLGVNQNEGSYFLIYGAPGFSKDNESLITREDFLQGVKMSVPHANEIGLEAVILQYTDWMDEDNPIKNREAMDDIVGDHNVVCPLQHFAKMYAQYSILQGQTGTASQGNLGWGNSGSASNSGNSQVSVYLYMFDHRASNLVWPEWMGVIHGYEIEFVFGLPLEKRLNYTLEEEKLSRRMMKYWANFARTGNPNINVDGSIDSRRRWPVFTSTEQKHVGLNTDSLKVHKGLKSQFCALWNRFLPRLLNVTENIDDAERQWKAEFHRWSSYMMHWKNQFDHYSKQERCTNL

The IC50 is the point on the concentration scale where inhibition reaches its midpoint. For `C[C@@H]1C[C@H]2OC(=O)[C@@]3(C)CCC[C@@](C)([C@@H]23)[C@@]1(O)CCc1ccoc1` [marrubiin], the IC50 stood at 52.7 ± 5.66 µM.
